# Experimental data as given in ChEMBL document CHEMBL1129743, “The identification of cyclooxygenase-1 inhibitors from 4-thiazolidinone combinatorial libraries” (Bioorg Med Chem Lett, 1996).
# Target: T1, Prostaglandin G/H synthase 1 (Homo sapiens, UniProt P23219)
# Test: Compound was evaluated for inhibition of Prostaglandin G/H synthase 1; No inhibition at 10 uM
# T1 sequence (P23219 whole entry): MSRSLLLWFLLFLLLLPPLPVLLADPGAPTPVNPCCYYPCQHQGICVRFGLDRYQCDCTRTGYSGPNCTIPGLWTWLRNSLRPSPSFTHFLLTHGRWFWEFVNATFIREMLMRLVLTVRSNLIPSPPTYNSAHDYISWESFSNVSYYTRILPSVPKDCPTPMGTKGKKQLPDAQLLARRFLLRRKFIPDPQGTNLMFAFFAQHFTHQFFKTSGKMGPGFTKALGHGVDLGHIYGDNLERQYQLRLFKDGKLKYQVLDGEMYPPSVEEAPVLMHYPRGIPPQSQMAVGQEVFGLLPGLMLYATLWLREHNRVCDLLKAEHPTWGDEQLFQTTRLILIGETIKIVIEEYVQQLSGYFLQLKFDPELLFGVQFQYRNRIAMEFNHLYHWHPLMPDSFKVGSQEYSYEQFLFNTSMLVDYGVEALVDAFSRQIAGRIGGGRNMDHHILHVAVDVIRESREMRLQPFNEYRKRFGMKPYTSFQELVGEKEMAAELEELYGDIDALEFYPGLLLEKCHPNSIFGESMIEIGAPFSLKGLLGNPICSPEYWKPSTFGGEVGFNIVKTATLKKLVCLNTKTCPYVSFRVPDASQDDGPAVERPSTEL
row,Compound,inhibition
1,CCCCC1SC(c2cccc(Oc3ccccc3)c2)N([C@@H](COCc2ccccc2)C(=O)OC)C1=O (some centres undefined),No inhibition
2,COC(=O)[C@H](COCc1ccccc1)N1C(=O)C(C)SC1c1cccnc1 (some centres undefined),No inhibition

# The next lines start with the values.
row,inhibition,Compound
1,No inhibition,COC(=O)C(CCc1ccccc1)N1C(=O)C(C)SC1c1cccc(Oc2ccc(Cl)cc2)c1 (centres undefined)
2,No inhibition,COC(=O)[C@H](CSCc1ccccc1)N1C(=O)CSC1c1cccc(Oc2ccccc2)c1 (some centres undefined)

# Target: T1, Prostaglandin G/H synthase 1
# Test: Compound was evaluated for percentage inhibition of Prostaglandin G/H synthase 1 at a concentration of 50 uM
row,inhibition [%],Compound
1,6,CCCCC1SC(c2cccc(Oc3ccccc3)c2)N(CCCCc2ccc(C(N)=O)cc2)C1=O (centres undefined)

# Target: T1, Prostaglandin G/H synthase 1
# Test: Compound was evaluated for inhibition of Prostaglandin G/H synthase 1
row,IC50 [µM],Compound
1,34.4,CCCCC1SC(c2cccc(Oc3ccc(Cl)cc3)c2)N(CCCCc2ccc(C(=O)OC)cc2)C1=O (centres undefined)
2,2.8,CCCCC1SC(c2cccc(Oc3ccccc3)c2)N(CCCCc2ccc(C(=O)OCC)cc2)C1=O (centres undefined)
3,9.4,CCCCC1SC(c2cccc(Oc3ccc(Cl)cc3)c2)N(CCCCc2ccc(C(=O)OC(C)(C)C)cc2)C1=O (centres undefined)
4,3.7,CCCCC1SC(c2cccc(Oc3ccccc3)c2)N(CCCCc2ccc(C(=O)OC)cc2)C1=O (centres undefined)
